Experimental data from patent US8367094B2, “Antimicrobial material and method for making the same” (priority 2008, dated 2013).

How the values were obtained:
[1] = test system: P. aeruginosa; conditions: known in the art; cited from earlier work
[2] = test system: S. aureus; test: in vitro agar zone of inhibition (ZOI) test; type: cell-based; conditions: 24 hours
Experimental: In an experimental procedure, using a commercially-available, medical grade polyurethane (PU) solution (available, for example from ChronoFlex AR, CardioTech International, Inc. of Woburn, Mass.), silver salt(s) is/are manually incorporated into the solution. The silver-loaded ChronoFlex solution is spread onto glass, and dried in a circulating oven at 80 C for 1.5 hours. The loaded PU film was allowed to equilibrate at RT for at least two days, and subsequently demolded. The film was manually cut into circles by means of a cork borer, and placed into serially-labeled Petri dishes. The microbiology technician was blinded regarding which silver salts were incorporated into the film. Two types of silver salts were tested as described generally above: (1) soluble salts for quick release, and (2) an insoluble salt for longevity.
If the test samples show a “zone of inhibition” (“ZOI”) the specimen thus display the capacity to kill the microorganisms tested. The ZOI is measured in mm; the greater the ZOI distance, the more powerful is the microbiocidal effect. Note that, prior to application, the test films were sterilized using short-wave UV at a distance of 2 inches for 10 seconds.
Using a 10 mm sample disc, the microbial growth inhibition was measured from the edge of each sample disc, producing antimicrobial results in accordance with the following Table:

SMILES	effectiveness against Gram-negative rods (such as pseudomonas aeruginosa) [1]	microbiocidal activity against S. aureus, in words [2]
[H]/N=C(\N/C(=N/[H])NCCCCCCNC(=N)NC(=N)Nc1ccc(Cl)cc1)Nc1ccc(Cl)cc1 [chlorhexidine]	somewhat ineffective	–
O=C([O-])c1ccccc1.[Ag+] [silver benzoate]	–	totally ineffective
CC(O)C(=O)[O-].[Ag+] (stereo not shown) [silver lactate]	–	totally ineffective
O=C([O-])C(F)(F)F.[Ag+] [silver trifluoroacetate]	–	effective against Gram-positives, but for very short periods of time
